In patent US6355799B1, “Substituted benzene compounds, process for their preparation, and herbicidal and defoliant compositions containing them” (ISK Americas Incorporated, priority 1997, dated 2002):

Experiments:
Type in all cases: in vivo
[1] = system: johnsongrass (Sorghum halepense, SORHA); assay: Post-emerge test, greenhouse herbicide activity screening; settings: phytotoxicity rating 0-100 (0 no damage, 100 complete death), 14 days after application
Method in brief: (§1)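 Herbicidal damage is scored 0 (none) to 100 (complete plant death) two weeks after a simulated field spray. Rates span 15–1000 g ai/ha, delivered in acetone at 187 l/ha. For post-emergence treatments, plants have 2–3 leaves and the spray carries 0.25% v/v non-ionic surfactant.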

[2] = system: large crabgrass (Digitaria sanguinalis, DIGSA); assay: as above; settings: phytotoxicity rating 0-100 (0 no damage, 100 complete death), 14 days after application
Method in brief: as §1

[3] = system: barnyardgrass (Echinochloa crus-galli, ECHCG); assay: as above; settings: phytotoxicity rating 0-100 (0 no damage, 100 complete death), 14 days after application
Method in brief: as §1

[4] = system: green foxtail (Setaria viridis, SETVI); assay: as above; settings: phytotoxicity rating 0-100 (0 no damage, 100 complete death), 14 days after application
Method in brief: as §1

[5] = system: velvetleaf (Abutilon theophrasti, ABUTH); assay: as above; settings: phytotoxicity rating 0-100 (0 no damage, 100 complete death), 14 days after application
Method in brief: as §1

[6] = system: lambsquarters (Chenopodium album, CHEAL); assay: as above; settings: phytotoxicity rating 0-100 (0 no damage, 100 complete death), 14 days after application
Method in brief: as §1

[7] = system: redroot pigweed (Amaranthus retroflexus, AMARE); assay: as above; settings: phytotoxicity rating 0-100 (0 no damage, 100 complete death), 14 days after application
Method in brief: as §1

[8] = system: sicklepod (Cassia obtusifolia, CASOB); assay: as above; settings: phytotoxicity rating 0-100 (0 no damage, 100 complete death), 14 days after application
Method in brief: as §1

[9] = system: ivyleaf morningglory (Ipomoea hederacea, IPOHE); assay: as above; settings: phytotoxicity rating 0-100 (0 no damage, 100 complete death), 14 days after application
Method in brief: as §1

[10] = system: redroot pigweed (Amaranthus retroflexus, AMARE); assay: Pre-emerge test, greenhouse herbicide activity screening; settings: pre-emerge, rated 14 days after application, 0 = no damage, 100 = complete death
Method in brief: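 Sandy loam pots; pre-emerge: sown 1 d pre-spray, surface-watered after, then bottom-watered. Post-emerge: sown 8–21 d before, 2–3 leaf stage, + 0.25% v/v NIS, bottom-watered. Acetone, 187 l/ha track spray, 15–1000 g ai/ha. 0–100 injury score, day 14.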

[11] = system: field corn (Zea mays L., var. Dekalb 535, CORN); assay: Pre-emerge test, crop safety; settings: pre-emerge, rated 14 days after application, 0 = no damage, 100 = complete death
Method in brief: (§2)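 Plants grown in 10 cm pots of sandy loam mix received acetone-dissolved compounds through a moving flat-fan nozzle. Doses ranged from 15 to 1000 g ai/ha. Pre-emerge pots were seeded one day earlier, post-emerge pots 8–21 days earlier. Fourteen days on, each pot was graded 0–100 for damage.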

[12] = system: upland rice (Oryza sp., var. Tebonnet, RICE); assay: Pre-emerge test, crop safety; settings: pre-emerge, rated 14 days after application, 0 = no damage, 100 = complete death
Method in brief: as §2

[13] = system: field corn (Zea mays L., var. Dekalb 535, CORN); assay: Post-emerge test, crop safety; settings: phytotoxicity rating 0-100 (0 no damage, 100 complete death), 14 days after application
Method in brief: (§3)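 Compounds in acetone were track-sprayed at 187 l/ha, 15–1000 g ai/ha, onto sandy loam pots. Pre-emerge seeds were sown one day before spraying, with surface watering afterwards. Post-emerge plants were at the 2–3 leaf stage and sprayed with 0.25% v/v non-ionic surfactant. Injury was rated 0–100 at 14 days.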

[14] = system: upland rice (Oryza sp., var. Tebonnet, RICE); assay: Post-emerge test, crop safety; settings: phytotoxicity rating 0-100 (0 no damage, 100 complete death), 14 days after application
Method in brief: as §3

[15] = system: johnsongrass (Sorghum halepense, SORHA); assay: Pre-emerge test, greenhouse herbicide activity screening; settings: pre-emerge, rated 14 days after application, 0 = no damage, 100 = complete death
Method in brief: as §3

[16] = system: large crabgrass (Digitaria sanguinalis, DIGSA); assay: as above; settings: pre-emerge, rated 14 days after application, 0 = no damage, 100 = complete death
Method in brief: as §3

[17] = system: barnyardgrass (Echinochloa crus-galli, ECHCG); assay: as above; settings: pre-emerge, rated 14 days after application, 0 = no damage, 100 = complete death
Method in brief: as §3

[18] = system: green foxtail (Setaria viridis, SETVI); assay: as above; settings: pre-emerge, rated 14 days after application, 0 = no damage, 100 = complete death
Method in brief: as §3

[19] = system: velvetleaf (Abutilon theophrasti, ABUTH); assay: as above; settings: pre-emerge, rated 14 days after application, 0 = no damage, 100 = complete death
Method in brief: as §3

[20] = system: lambsquarters (Chenopodium album, CHEAL); assay: as above; settings: pre-emerge, rated 14 days after application, 0 = no damage, 100 = complete death
Method in brief: as §3

[21] = system: sicklepod (Cassia obtusifolia, CASOB); assay: as above; settings: pre-emerge, rated 14 days after application, 0 = no damage, 100 = complete death
Method in brief: as §3

[22] = system: ivyleaf morningglory (Ipomoea hederacea, IPOHE); assay: as above; settings: pre-emerge, rated 14 days after application, 0 = no damage, 100 = complete death
Method in brief: as §3

Compound: C=C(C)C(=O)N(C(=O)C(=C)C)c1c(OC)c(Cl)cc(F)c1-n1c(=O)cc(C(F)(F)F)n(C)c1=O [2-6]
- Post-emerge Herbicidal Activity SORHA ([1]; 63 g ai/ha): 0
- Post-emerge Herbicidal Activity SORHA ([1]; 250 g ai/ha): 0
- Post-emerge Herbicidal Activity DIGSA ([2]; 63 g ai/ha): 0
- Post-emerge Herbicidal Activity DIGSA ([2]; 250 g ai/ha): 0
- Post-emerge Herbicidal Activity ECHCG ([3]; 63 g ai/ha): 0
- Post-emerge Herbicidal Activity ECHCG ([3]; 250 g ai/ha): 0
- Post-emerge Herbicidal Activity SETVI ([4]; 63 g ai/ha): 0
- Post-emerge Herbicidal Activity SETVI ([4]; 250 g ai/ha): 0
- Post-emerge Herbicidal Activity ABUTH ([5]; 63 g ai/ha): 0
- Post-emerge Herbicidal Activity ABUTH ([5]; 250 g ai/ha): 70
- Post-emerge Herbicidal Activity CHEAL ([6]; 63 g ai/ha): 0
- Post-emerge Herbicidal Activity CHEAL ([6]; 250 g ai/ha): 30
- Post-emerge Herbicidal Activity AMARE ([7]; 63 g ai/ha): 0
- Post-emerge Herbicidal Activity AMARE ([7]; 250 g ai/ha): 10
- Post-emerge Herbicidal Activity CASOB ([8]; 63 g ai/ha): 0
- Post-emerge Herbicidal Activity CASOB ([8]; 250 g ai/ha): 0
- Post-emerge Herbicidal Activity IPOHE ([9]; 63 g ai/ha): 0
- Post-emerge Herbicidal Activity IPOHE ([9]; 250 g ai/ha): 30
- Pre-emerge Herbicidal Activity AMARE (phytotoxicity rating, scale 0-100) ([10]; 63 g ai/ha): 0
- Pre-emerge Herbicidal Activity AMARE (phytotoxicity rating, scale 0-100) ([10]; 250 g ai/ha): 50
- Pre-emerge crop damage CORN (phytotoxicity rating, scale 0-100) ([11]; 63 g ai/ha): 0
- Pre-emerge crop damage CORN (phytotoxicity rating, scale 0-100) ([11]; 250 g ai/ha): 0
- Pre-emerge crop damage RICE (phytotoxicity rating, scale 0-100) ([12]; 63 g ai/ha): 0
- Pre-emerge crop damage RICE (phytotoxicity rating, scale 0-100) ([12]; 250 g ai/ha): 0
- Post-emerge Herbicidal Activity CORN (crop damage) ([13]; 63 g ai/ha): 0
- Post-emerge Herbicidal Activity CORN (crop damage) ([13]; 250 g ai/ha): 5
- Post-emerge Herbicidal Activity RICE (crop damage) ([14]; 63 g ai/ha): 0
- Post-emerge Herbicidal Activity RICE (crop damage) ([14]; 250 g ai/ha): 0
- Pre-emerge Herbicidal Activity SORHA (phytotoxicity rating, scale 0-100) ([15]; 63 g ai/ha): 0
- Pre-emerge Herbicidal Activity SORHA (phytotoxicity rating, scale 0-100) ([15]; 250 g ai/ha): 20
- Pre-emerge Herbicidal Activity DIGSA (phytotoxicity rating, scale 0-100) ([16]; 63 g ai/ha): 0
- Pre-emerge Herbicidal Activity DIGSA (phytotoxicity rating, scale 0-100) ([16]; 250 g ai/ha): 10
- Pre-emerge Herbicidal Activity ECHCG (phytotoxicity rating, scale 0-100) ([17]; 63 g ai/ha): 0
- Pre-emerge Herbicidal Activity ECHCG (phytotoxicity rating, scale 0-100) ([17]; 250 g ai/ha): 0
- Pre-emerge Herbicidal Activity SETVI (phytotoxicity rating, scale 0-100) ([18]; 63 g ai/ha): 0
- Pre-emerge Herbicidal Activity SETVI (phytotoxicity rating, scale 0-100) ([18]; 250 g ai/ha): 80
- Pre-emerge Herbicidal Activity ABUTH (phytotoxicity rating, scale 0-100) ([19]; 63 g ai/ha): 0
- Pre-emerge Herbicidal Activity ABUTH (phytotoxicity rating, scale 0-100) ([19]; 250 g ai/ha): 0
- Pre-emerge Herbicidal Activity CHEAL (phytotoxicity rating, scale 0-100) ([20]; 63 g ai/ha): 0
- Pre-emerge Herbicidal Activity CHEAL (phytotoxicity rating, scale 0-100) ([20]; 250 g ai/ha): 0
- Pre-emerge Herbicidal Activity CASOB (phytotoxicity rating, scale 0-100) ([21]; 63 g ai/ha): 0
- Pre-emerge Herbicidal Activity CASOB (phytotoxicity rating, scale 0-100) ([21]; 250 g ai/ha): 0
- Pre-emerge Herbicidal Activity IPOHE (phytotoxicity rating, scale 0-100) ([22]; 63 g ai/ha): 0
- Pre-emerge Herbicidal Activity IPOHE (phytotoxicity rating, scale 0-100) ([22]; 250 g ai/ha): 0
